Results published in PubChem BioAssay AID504748 (National Center for Advancing Translational Sciences (NCATS), 2011).

Tested on: mouse liver microsomes, percent remaining, LC-MS/MS
Assay: Inhibitors of N370S glucocerebrosidase as a Potential Chaperone Treatment of Gaucher Disease: Metabolic Stability Profile
Conditions: at 5 µM; hits give high values
Text: Glucocerebrosidase (GC) catalyzes the hydrolysis of beta-glucocerebroside to glucose and ceramide in lysosomes. Mutations in the glucocerebrosidase gene result in Gaucher disease, an autosomal recessive lysosomal storage disorder. Many of the mutations encountered in patients with Gaucher disease are missense alterations that may cause misfolding, decreased stability and/or mistrafficking of this lysosomal protein. […] These inhibitors include iminosugar analogs and three non-iminosugar inhibitors identified from a previous HTS of 62,000 compounds with the wild type recombinant enzyme. After further testing a probe has been identified and was characterized though AMDE tests. Mouse liver microsomes are created through broken up endoplasmic reticulum from mouse liver. These liver microsomes contain many drug metabolizing enzymes, such as Cytochome P-450s and flavin-containing monooxygenases. […] NIH Chemical Genomics Center [NCGC] NIH Molecular Libraries Probe Production Centers Network [MLPCN] MLPCN Grant: MH086442-01 Assay Submitter (PI): Wei Zheng
5uM of compound is incubated with mouse liver microsome; the reference compounds are verapamil and warfarin. Compounds are incubated and samples are analyzed with LC-MS/MS.

For `S=C(NCCCc1cnc[nH]1)NCCCN(Cc1ccc(Cl)c(Cl)c1)c1ccc(Br)cn1`, the percent remaining was 102%.
